Assay results taken from patent US20230285598A1, “SULFOXONIUM YLIDE DERIVATIVES AS PROBES FOR CYSTEINE PROTEASE” (Takeda Pharmaceutical Company Limited, priority 2018, published 2023).

Experiments:
cathepsin X [1] = biological target: cathepsin X (Homo sapiens, UniProt Q9UBR2); assay: Labeling of human oral squamous cell carcinoma tissue lysates, in-gel fluorescence; assay type: biochemical; parameters: Tissues were lysed by sonication in citrate buffer and supernatants were cleared by centrifugation; from tissue; host or cells: human oral squamous cell carcinoma biopsies and patient-matched normal oral mucosa; conditions: °C5 µM for 20 minutes; 80 µg protein
Chain of cathepsin X (Homo sapiens, UniProt Q9UBR2) (Q9UBR2 62-303): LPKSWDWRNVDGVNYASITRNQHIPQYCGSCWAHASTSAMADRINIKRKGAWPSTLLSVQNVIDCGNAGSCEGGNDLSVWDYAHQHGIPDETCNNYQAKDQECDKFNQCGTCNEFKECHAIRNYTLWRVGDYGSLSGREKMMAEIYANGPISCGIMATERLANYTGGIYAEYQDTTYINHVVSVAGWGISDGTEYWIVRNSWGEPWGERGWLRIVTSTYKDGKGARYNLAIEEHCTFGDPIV
Description: To investigate the ability of sCy5-,Nle-SY to label cathepsin X in human tissues, biopsies that were obtained from patients with oral squamous cell carcinoma were used. Normal oral mucosal tissues that were biopsied from the contralateral side of the tongues of the same patients were used as controls.
The human oral squamous cell carcinomas or patient-matched normal oral mucosa were biopsied according to protocols approved by the Institutional Review Board at the New York University Oral Cancer Centre. Biopsies were immediately snap-frozen and stored at -80° C. Tissues were lysed by sonication in citrate buffer and supernatants were cleared by centrifugation. Total protein concentration was assessed by BCA assay and 80 µg were labelled with Cy5-Nle-SY: The lysates prepared from the oral squamous cell carcinoma tissue or patient-matched normal oral mucosa were incubated with sCy5-Nle-SY (°C5 µM for 20 minutes) and labeling was analyzed by in-gel fluorescence (fluorescent SDS-PAGE). Samples were also immunoblotted to determine total cathepsin X expression (n=10). Additionally, the sCy5-Nle-SY-labeled cancer lysates were immunoprecipitated with a cathepsin X-specific antibody to verify the identity of the labeled protein.

cathepsin X [2] = biological target: cathepsin X (Mus musculus, UniProt Q9WUU7); assay: Confocal microscopy of kidney cryosections after in vivo probe administration
Chain of cathepsin X (Mus musculus, UniProt Q9WUU7) (Q9WUU7 64-306): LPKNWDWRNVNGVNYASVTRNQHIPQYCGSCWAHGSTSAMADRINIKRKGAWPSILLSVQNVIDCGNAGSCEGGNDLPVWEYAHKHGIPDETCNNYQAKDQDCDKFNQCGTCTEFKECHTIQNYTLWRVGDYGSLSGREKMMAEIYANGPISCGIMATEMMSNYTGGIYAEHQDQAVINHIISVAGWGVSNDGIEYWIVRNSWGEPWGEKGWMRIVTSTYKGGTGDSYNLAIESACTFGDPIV
Description: Kidney tissues from mice that received sCy5-Nle-SY (or vehicle control) above were fixed overnight in 4% paraformaldehyde in PBS followed by overnight cryoprotection in 30% sucrose. Tissues were embedded in OCT, frozen on dry ice, and sectioned at 10 µm. Immunostaining for cathepsin X was carried out according to standard protocols. In brief, sections were air dried, fixed in cold acetone for 10 minutes, air dried again, and then rehydrated in PBS. Sections were blocked in PBS containing 3% normal horse serum with 0.1% Triton X-100. Goat anti-cathepsin X was added at 1:100 in blocking buffer overnight at 4° C. Sections were then washed, and secondary antibody, donkey anti-goat-AlexaFluor594 was added at 1:500 for 1 hour at room temperature. Sections were stained with DAPI for 5 minutes, washed, and mounted with ProLong Diamond. Staining was analyzed using a Leica SP8 inverted confocal microscope.
Additionally, after in vivo probe administration, kidney cryosections from sCy5-Nle-SY-injected mice or no-probe control were prepared and analyzed by confocal microscopy for sCy5 fluorescence (red) or cathepsin X immunoreactivity (green) along with DAPI (blue) to visualize nuclei. […] Thus, sCy5-Nle-SY could be used to distinguish active cathepsin X relative to total cathepsin X in tissues after in vivo administration.

CCCC[C@H](NC(=O)CCCCCN1/C(=C/C=C/C=C/C2=[N+](CC)c3ccc(S(=O)(=O)[O-])cc3C2(C)C)C(C)(C)c2cc(S(=O)(=O)O)ccc21)C(=O)C=S(C)(C)=O [sCy5-Nle-SY]
labeling of cathepsin X in human oral squamous cell carcinoma lysates (cathepsin X [1]): clear and selective labeling of cathepsin X was observed
sCy5 fluorescence in kidney cryosections (cathepsin X [2]; after in vivo probe administration): Strong punctate sCy5 fluorescence was observed
overlap of sCy5 signal with cathepsin X immunoreactivity (cathepsin X [2]; kidney cryosections after in vivo probe administration): signal largely overlapped with immunoreactive cathepsin X
